# Measurements as given in patent US20130344026A1, “Dimeric Smac Mimetics” (priority 2009, published 2013).
# System: HCC461
# Experiment: cell viability assay in HCC461, compound alone
# Assay type: cell-based
# Conditions: HCC461, HCC461; Tables 6-9; read-out: IC50 (μM) in cell viability assay in HCC461
row,SMILES,IC50 [µM]
1,CN[C@@H](C)C(=O)NC(C(=O)N1C[C@@H](NC(=O)c2cc(NC(=O)OCc3ccc([N+](=O)[O-])cc3)cc(C(=O)N[C@H]3C[C@@H](C(=O)N[C@@H]4CCCc5ccccc54)N(C(=O)[C@@H](NC(=O)[C@H](C)NC)C(C)(C)C)C3)c2)CC1C(=O)N[C@@H]1CCCc2ccccc21)C(C)(C)C (some centres unmarked) [Compound 110],0.059
2,CN[C@@H](C)C(=O)N[C@@H](CC#CC#CC[C@H](NC(=O)[C@H](C)NC)C(=O)N1CC=C[C@H]1C(=O)N[C@@H]1CCCc2ccccc21)C(=O)N1CC=C[C@H]1C(=O)N[C@@H]1CCCc2ccccc21 [Compound 89],0.414
3,CCC[C@H](NC(=O)[C@H](C)NC)C(=O)N1C[C@@H](NC(=O)c2cccc(C(=O)N[C@H]3C[C@@H](C(=O)N[C@@H]4CCCc5ccccc54)N(C(=O)[C@@H](NC(=O)[C@H](C)NC)C(C)(C)C)C3)c2)C[C@H]1C(=O)N[C@H](C)C(C)C [Compound 140],0.28
4,CN[C@@H](C)C(=O)N[C@@H](CCCCNC(=O)c1cccc(C(=O)N[C@H]2C[C@@H](C(=O)N[C@@H]3CCCc4ccccc43)N(C(=O)[C@@H](NC(=O)[C@H](C)NC)C(C)(C)C)C2)c1)C(=O)N1CCC[C@H]1C(=O)N[C@@H]1CCCc2ccccc21 [Compound 134],0.058

# More lines, now with the values ahead:
row,IC50 [µM],SMILES
1,0.027,CN[C@@H](C)C(=O)N[C@@H](CCCCNC(=O)c1cccc(C(=O)N[C@H]2C[C@@H](C(=O)N[C@@H]3CCCc4ccccc43)N(C(=O)[C@@H](NC(=O)[C@H](C)NC)C(C)(C)C)C2)c1)C(=O)N1CCCC[C@H]1C(=O)N[C@@H]1CCCc2ccccc21 [Compound 143]
2,> 30,CN[C@@H](C)C(=O)N[C@H](C(=O)N[C@@H](CCCCNC(=O)c1cccc(C(=O)N[C@H]2CC(C(=O)N[C@H](C)c3ccccc3)N(C(=O)[C@@H](NC(=O)[C@H](C)NC)C(C)(C)C)C2)c1)C(=O)N[C@@H](C)C(C)C)C(C)C (some centres unmarked) [Compound 162]

# Same assay, conditions: HCC461, HCC461; Tables 15-18; read-out: IC50 (uM) in cell viability assay in HCC461
row,SMILES,IC50 [µM]
1,CN[C@@H](C)C(=O)N[C@H](C(=O)N1CCC[C@H]1C(=O)N[C@H](COCc1cccc(COC[C@@H](NC(=O)[C@@H]2CCCN2C(=O)[C@@H](NC(=O)[C@H](C)NC)C(C)(C)C)C2CCCCC2)c1)c1ccccc1)C(C)(C)C [Compound P4-18],0.013
2,CN[C@@H](C)C(=O)N[C@@H](CCNC(=O)c1cccc(C(=O)NCC[C@H](NC(=O)[C@H](C)NC)C(=O)N2CCC[C@H]2C(=O)N[C@@H]2CCCc3ccccc32)c1)C(=O)N1CCC[C@H]1C(=O)N[C@@H]1CCCc2ccccc21 [Compound P2-26],0.08
3,CN[C@@H](C)C(=O)N[C@@H](CCNC(=O)c1cc(N)cc(C(=O)NCC[C@H](NC(=O)[C@H](C)NC)C(=O)N2CCC[C@H]2C(=O)N[C@@H]2CCCc3ccccc32)c1)C(=O)N1CCC[C@H]1C(=O)N[C@@H]1CCCc2ccccc21 [Compound P2-27],0.165
4,CN[C@@H](C)C(=O)N[C@H](C(=O)N1CCC[C@H]1C(=O)N[C@H](COCc1ccc(COC[C@@H](NC(=O)[C@@H]2CCCN2C(=O)[C@@H](NC(=O)[C@H](C)NC)C(C)(C)C)C2CCCCC2)cc1)C1CCCCC1)C(C)(C)C [Compound P4-17],0.015

# More lines, now with the values ahead:
row,IC50 [µM],SMILES
1,0.324,CN[C@@H](C)C(=O)N[C@@H](CCCCNC(=O)c1cccc(C(=O)NCCCC[C@H](NC(=O)[C@H](C)NC)C(=O)N2CCC[C@H]2C(=O)NC(c2ccccc2)c2ccccc2)c1)C(=O)N1CCC[C@H]1C(=O)NC(c1ccccc1)c1ccccc1 [Compound P2-29]
2,0.038,CN[C@@H](C)C(=O)N[C@@H](CCCCNc1nc(NCCCC[C@H](NC(=O)[C@H](C)NC)C(=O)N2CCC[C@H]2C(=O)N[C@@H]2CCCc3ccccc32)nc(OC)n1)C(=O)N1CCC[C@H]1C(=O)N[C@@H]1CCCc2ccccc21 [Compound P2-32]
3,0.24,CN[C@@H](C)C(=O)N[C@H](C(=O)N1CCC[C@H]1Cn1nnnc1SC(C)(C)C)[C@@H](C)OCC#CC#CCO[C@H](C)[C@H](NC(=O)[C@H](C)NC)C(=O)N1CCC[C@H]1Cn1nnnc1SC(C)(C)C [Compound P2-21]
4,0.098,CN[C@@H](C)C(=O)NC(C(=O)N1CCC[C@H]1C(=O)NC1CCCc2ccccc21)c1ccc(-c2ccc(C(NC(=O)[C@H](C)NC)C(=O)N3CCC[C@H]3C(=O)NC3CCCc4ccccc43)cc2)cc1 (some centres unmarked) [Compound P2-2]
5,0.18,CN[C@@H](C)C(=O)N[C@H](C(=O)N1CCC[C@H]1Cn1nnnc1S(=O)(=O)c1ccc(C)cc1)[C@@H](C)OCC#CC#CCO[C@H](C)[C@H](NC(=O)[C@H](C)NC)C(=O)N1CCC[C@H]1Cn1nnnc1S(=O)(=O)c1ccc(C)cc1 [Compound P2-22]
6,0.268,CN[C@@H](C)C(=O)N[C@@H](CCCCNC(=O)c1cc(C(=O)NCCCC[C@H](NC(=O)[C@H](C)NC)C(=O)N2CCC[C@H]2C(=O)NC(c2ccccc2)c2ccccc2)[nH]n1)C(=O)N1CCC[C@H]1C(=O)NC(c1ccccc1)c1ccccc1 [Compound P2-31]
7,0.018,CN[C@@H](C)C(=O)NC(C(=O)N1CCC[C@H]1C(=O)NC1CCCc2ccccc21)c1ccc(C#Cc2ccc(C(NC(=O)[C@H](C)NC)C(=O)N3CCC[C@H]3C(=O)NC3CCCc4ccccc43)cc2)cc1 (some centres unmarked) [Compound P2-1]
8,0.024,CN[C@@H](C)C(=O)N[C@@H](CCCCCC[C@H](NC(=O)[C@H](C)NC)C(=O)N1CCC[C@H]1C(=O)NC1c2ccccc2-c2ccccc21)C(=O)N1CCC[C@H]1C(=O)NC1c2ccccc2-c2ccccc21 [Compound P2-6]

# Same assay, conditions: HCC461, HCC461 cells, compound alone; read-out: IC50 (uM) in cell viability assay in HCC461
row,SMILES,IC50 [µM]
1,CN[C@@H](C)C(=O)N[C@H](C(=O)N1C[C@@H](NC(=O)c2cc(C(=O)N[C@H]3C[C@@H](C(=O)N[C@@H]4CCCc5ccccc54)N(C(=O)[C@@H](NC(=O)[C@H](C)NC)C(C)(C)C)C3)cc(N(S(C)(=O)=O)S(C)(=O)=O)c2)C[C@H]1C(=O)N[C@@H]1CCCc2ccccc21)C(C)(C)C [Compound P3-41],0.016
2,CN[C@@H](C)C(=O)N[C@H](C(=O)N1C[C@@H](n2cc(CNC(=O)NCc3cn([C@H]4C[C@@H](C(=O)N[C@@H]5CCCc6ccccc65)N(C(=O)[C@@H](NC(=O)[C@H](C)NC)C(C)(C)C)C4)nn3)nn2)C[C@H]1C(=O)N[C@@H]1CCCc2ccccc21)C(C)(C)C [Compound P3-5],0.061
3,CN[C@@H](C)C(=O)N[C@H](C(=O)N1C[C@@H](n2cc(-c3cccc(-c4cn([C@H]5C[C@@H](C(=O)N[C@H](C)c6ccccc6)N(C(=O)[C@@H](NC(=O)[C@H](C)NC)C(C)(C)C)C5)nn4)c3)nn2)C[C@H]1C(=O)N[C@H](C)c1ccccc1)C(C)(C)C [Compound P3-88],0.033
4,"CN[C@@H](C)C(=O)N[C@H](C(=O)N1C[C@@H](NC(=O)c2ccc(CNC(=O)CCC(=O)NCc3ccc(C(=O)N[C@H]4C[C@@H](C(=O)NC5CCCc6ccccc65)N(C(=O)[C@@H](NC(=O)[C@H](C)NC)C(C)(C)C)C4)cc3)cc2)C[C@H]1C(=O)NC1CCCc2ccccc21)C(C)(C)C (single isomer, unassigned) [Compound P3-70]",0.06

# Further lines, results first:
row,IC50 [µM],SMILES
1,0.1,CN[C@@H](C)C(=O)N[C@H](C(=O)N1C[C@@H](NC(=O)C(O)CC(=O)N[C@H]2C[C@@H](C(=O)NC3CCCc4ccccc43)N(C(=O)[C@@H](NC(=O)[C@H](C)NC)C(C)(C)C)C2)CC1C(=O)N[C@@H]1CCCc2ccccc21)C(C)(C)C (some centres unmarked) [Compound P3-84]
2,0.002,CN[C@@H](C)C(=O)N[C@H](C(=O)N1C[C@@H](NC(=O)[C@H]2CC[C@H](C(=O)N[C@H]3C[C@@H](C(=O)N[C@@H]4CCCc5ccccc54)N(C(=O)[C@@H](NC(=O)[C@H](C)NC)C(C)(C)C)C3)CC2)C[C@H]1C(=O)N[C@@H]1CCCc2ccccc21)C(C)(C)C [Compound P3-31]
3,0.063,CN[C@@H](C)C(=O)N[C@H](C(=O)N1C[C@@H](NC(=O)c2cccc(C(=O)N[C@H]3C[C@@H](C(=O)N[C@H](C)c4ccccc4)N(C(=O)[C@@H](NC(=O)[C@H](C)NC)C(C)(C)C)C3)c2)C[C@H]1C(=O)N[C@H](C)c1ccccc1)C(C)(C)C [Compound P3-50]
4,0.017,CC[C@H](C)[C@H](NC(=O)[C@H](C)NC)C(=O)N1C[C@@H](NC(=O)c2cc(C(=O)N[C@H]3C[C@@H](C(=O)N[C@H](C)c4ccccc4)N(C(=O)[C@@H](NC(=O)[C@H](C)NC)[C@@H](C)CC)C3)[nH]n2)C[C@H]1C(=O)N[C@H](C)c1ccccc1 [Compound P3-69]
5,0.006,C#CC[C@H](NC(=O)[C@H](C)NC)C(=O)N1C[C@@H](NC(=O)c2ccc(C(=O)N[C@H]3C[C@@H](C(=O)N[C@@H]4CCCc5ccccc54)N(C(=O)[C@H](CC#C)NC(=O)[C@H](C)NC)C3)cc2)C[C@H]1C(=O)N[C@@H]1CCCc2ccccc21 [Compound P3-4]
6,0.016,CN[C@@H](C)C(=O)N[C@H](C(=O)N1C[C@@H](NC(=O)c2cc(C(=O)N[C@H]3C[C@@H](C(=O)NC4c5ccccc5-c5ccccc54)N(C(=O)[C@@H](NC(=O)[C@H](C)NC)C(C)(C)C)C3)[nH]n2)C[C@H]1C(=O)NC1c2ccccc2-c2ccccc21)C(C)(C)C [Compound P3-63]
7,0.026,CC[C@@H](C)C(=O)N[C@H](C(=O)N1C[C@@H](NC(=O)c2cccc(C(=O)N[C@H]3C[C@@H](C(=O)NC(c4ccccc4)c4ccccc4)N(C(=O)[C@@H](NC(=O)[C@H](C)NC)C(C)(C)C)C3)c2)C[C@H]1C(=O)NC(c1ccccc1)c1ccccc1)C(C)(C)C [Compound P3-51]

# Same assay, conditions: HCC461; Tables 15-18; read-out: IC50 (uM) in cell viability assay in HCC461
row,SMILES,IC50 [µM]
1,"CN[C@@H](C)C(=O)N[C@H](C(=O)N1CCC[C@H]1C(=O)N[C@H](CNC(=O)C1CCCC(C(=O)NC[C@@H](NC(=O)[C@@H]2CCCN2C(=O)[C@@H](NC(=O)[C@H](C)NC)C(C)(C)C)C2CCCCC2)C1)C1CCCCC1)C(C)(C)C (single isomer, unassigned) [Compound P4-4]",0.004
2,CC[C@H](NC)C(=O)N[C@@H](CC#CC#CC[C@H](NC(=O)[C@H](CC)NC)C(=O)N1CCC[C@H]1C(=O)N[C@@H]1CCCc2ccccc21)C(=O)N1CCC[C@H]1C(=O)N[C@@H]1CCCc2ccccc21 [Compound P2-9],0.025

# Same assay, conditions: HCC461 cells, compound alone; read-out: IC50 (uM) in cell viability assay in HCC461
row,IC50 [µM],SMILES
1,0.022,CN[C@@H](C)C(=O)N[C@H](C(=O)N1C[C@@H](NC(=O)C2CCCC(C(=O)N[C@H]3C[C@@H](C(=O)N[C@H](C)C4CCCCC4)N(C(=O)[C@@H](NC(=O)[C@H](C)NC)C(C)(C)C)C3)C2)C[C@H]1C(=O)N[C@H](C)C1CCCCC1)C(C)(C)C (some centres unmarked) [Compound P3-47]
